Values joined by “and” are separate entries in the source; they are usually repeats but may differ in a detail not shown here. Equal entries are not always repeated.
Tests used:
B cells = test: Proliferation of LPS-stimulated B cells; assay type: cell-based, mice; settings: 10 μM
T cells = test: Proliferation of Con A-stimulated T cells; assay type: cell-based, mice; settings: 10 μM
Procedure: (§1) Peritoneal macrophage or splenocytes (lymphocytes and macrophage) were harvested from donor mice using standard techniques. Cells were placed in culture and stimulated with either LPS (10 μg/mL) or concanavalin A 5 μg/mL (Sigma Chemical Co., St Louis, Mo.) in RPMI-1640 medium supplemented with antibiotics, […] 2-mercaptoethanol, 10 mm HEPES buffer and 10% fetal calf serum (FCS) (see Holan et al., 1985) to stimulate macrophage and T-cells respectively. Compounds were added from DMSO stock solutions to a final concentration of 50 μM or less with DMSO not exceeding 1% of total volume. After 72 h, cell supernatant was recovered and the cytokine levels were estimated by ELISA. The effect of compounds on cytokine production was recorded as follows: […]

IL-4 = IL-4 production, Con A, spleen; assay type: cell-based, mice; settings: 5 μM, 72 h
Procedure: as §1

IL-10 [1] = test: IL-10 production by LPS-stimulated murine peritoneal macrophage (ELISA); assay type: cell-based, mice; settings: for IL-10 by ELISA, % of solvent treated control: murine peritoneal macrophage
Procedure: as §1

IL-1β = IL-1β production by LPS-stimulated macrophages; assay type: cell-based, mice; settings: 5 μM, 72 h
Procedure: as §1

IL-6 [2] = test: IL-6 gene expression in murine pancreatic cancer tumours (real time PCR); assay type: in vivo, mice; settings: tumour mRNA; daily i.p. 10 μmol/kg; vehicle 22.5
Procedure: (§2) For treatment of pancreatic cancer, mice susceptible to pancreatic cancer were observed until cancer was apparent. Thereafter, animals were classified by ultrasound to a group of similar tumour size and were allocated to treatments: Vehicle, Gemcitabine 100 mg/kg every 5th day, or Gemcitabine plus the IL-10 inhibitor 43j ([…] i.p.), or the IL-12 stimulant 49 (10 μmol/kg/day i.p.) or all three combined at the doses specified.
(§3) Murine pancreatic cancer was induced as in Example 61. Mice carrying tumours were selected when the tumour was first detectable by ultrasound and the animals allocated to groups treated with either Vehicle, 49 alone or 43J alone or the combination of 49 and 43j. Compounds were supplied daily i.p. at 10 μmol/kg. Gene expression as determined by mRNA levels is determined by real time PCR methods using reverse transcribed templates.

IL-10 [3] = test: IL-10 production by bone marrow derived macrophage or tumour associated macrophage; assay type: cell-based, C57BL/6 mice; settings: 1 or 10 μM; stimulant such as LPS or TNFa or tumour conditioned medium
Procedure: (§4) A similar experiment can be performed using Bone marrow derived macrophage or Tumour associated macrophage (TAM): Mouse macrophages were derived from the bone marrow of WT, C57BL/6 mice and cultured for 7 d in DMEM medium supplemented with 10 ng/ml recombinant mouse M-CSF (R & D Systems). TAMs were isolated from the peritoneal cavity of mice in which IDB ovarian cancers had been growing i.p. for up to 10 wk. The macrophage are then treated with the compound to test at 1 or 10 μM in the presence of a stimulant such as LPS or TNFa or tumour conditioned medium.

IFNg = IFNg gene expression in murine pancreatic cancer tumours (real time PCR); assay type: in vivo, mice; settings: tumour mRNA; daily i.p. 10 μmol/kg; vehicle 1.0
Procedure: as §2, §3

IL-23 = IL-23 gene expression in murine pancreatic cancer tumours (real time PCR); assay type: in vivo, mice; settings: tumour mRNA; daily i.p. 10 μmol/kg; vehicle 15.2
Procedure: as §2, §3

IL-10 [4] = test: IL-10 gene expression in murine pancreatic cancer tumours (real time PCR); assay type: in vivo, mice; settings: tumour mRNA; daily i.p. 10 μmol/kg; vehicle 21.4
Procedure: as §2, §3

IL-12 [5] = test: IL-12 gene expression in murine pancreatic cancer tumours (real time PCR); assay type: in vivo, mice; settings: tumour mRNA; daily i.p. 10 μmol/kg; vehicle 3.1
Procedure: as §2, §3

TNFa = TNFa gene expression in murine pancreatic cancer tumours (real time PCR); assay type: in vivo, mice; settings: tumour mRNA; daily i.p. 10 μmol/kg; vehicle 15.2
Procedure: as §2, §3

IL-17 = IL-17 gene expression in murine pancreatic cancer tumours (real time PCR); assay type: in vivo, mice; settings: tumour mRNA; daily i.p. 10 μmol/kg; vehicle 17.8
Procedure: as §2, §3

IL-12 [6] = test: IL-12 production by bone marrow derived macrophage or tumour associated macrophage; assay type: cell-based, C57BL/6 mice; settings: 1 or 10 μM; stimulant such as LPS or TNFa or tumour conditioned medium
Procedure: as §4

IL-6 [7] = test: IL-6 production by LPS-stimulated macrophages; assay type: cell-based, mice; settings: 10 μM, 72 h
Procedure: as §1

IL-10 [8] = test: IL-10 production by ConA-stimulated T cells; assay type: cell-based, mice; settings: 10 μM, 72 h
Procedure: as §1

NO = NO production by LPS-stimulated macrophages; assay type: cell-based, mice; settings: 10 μM, 72 h
IL-2 = IL-2 production by ConA-stimulated T cells; assay type: cell-based, mice; settings: 10 μM, 72 h
Procedure: as §1

IFN-g = IFN-g production by ConA-stimulated T cells; assay type: cell-based, mice; settings: 10 μM, 72 h
Procedure: as §1

pancreatic cancer = test: Survival of mice with pancreatic cancer; assay type: in vivo; settings: Gemcitabine 100 mg/kg every 5th day; 43j 10 mmol/kg/d i.p.; 49 10 μmol/kg/day i.p.
Procedure: as §2

[9] = test system: Lewis Lung Carcinoma Cells (LLC); test: Subcutaneous Lewis Lung Carcinoma tumour growth; assay type: in vivo, C57BLK6 mice; settings: 12.5 mg/kg p.o. once daily
Procedure: Lewis Lung Carcinoma Cells (LLC) are cultured by incubation in a medium which is RPMI 1640 (50%) and DMEM (50%) with a final concentration or fetal calf serum of 10%. After culture to the log phase, 10^5 cells are injected subcutaneously in […] mice. Mice are treated with substance either orally or via intraperitoneal injection.

CC[C@H]1OC(=O)[C@H](C)[C@@H](O[C@H]2C[C@@](C)(OC)[C@@H](O)[C@H](C)O2)[C@H](C)[C@@H](O[C@@H]2O[C@H](C)C[C@H](N(C)CC(O)CSc3nc(-c4ccc(F)cc4)c(-c4ccncc4)[nH]3)[C@H]2O)[C@](C)(O)C[C@@H](C)CN(C)[C@H](C)[C@@H](O)[C@]1(C)O (some centres unmarked) [Compound 20]
Proliferation (LPS, B cells) (B cells): −1 % of control treated with solvent alone
Proliferation (Con A, T cells) (T cells): 0 % of control treated with solvent alone
IL-4 (Con A, spleen), amount of cytokine (IL-4): −5 % of control treated with solvent alone
IL-10 by ELISA, % of solvent treated control (IL-10 [1]; 1.25 μM inhibitor in medium): −11 % of solvent treated control
IL-10 by ELISA, % of solvent treated control (IL-10 [1]; 5 μM inhibitor in medium): −12 % of solvent treated control
IL-10 by ELISA, % of solvent treated control (IL-10 [1]; 20 μM inhibitor in medium): −12 % of solvent treated control
IL-1β (Macrophages, LPS), amount of cytokine (IL-1β): 34 % of control treated with solvent alone

CC[C@H]1OC(=O)[C@H](C)[C@@H](O[C@H]2C[C@@](C)(OC)[C@@H](O)[C@H](C)O2)[C@H](C)[C@@H](O[C@@H]2O[C@H](C)C[C@H](N(C)CCCCCC(=O)OCCSc3nc(-c4ccc(F)cc4)c(-c4ccnc(NC5CCOCC5)c4)[nH]3)[C@H]2O)[C@](C)(O)C[C@@H](C)CN(C)[C@H](C)[C@@H](O)[C@]1(C)O [Compound 43j]
Relative Gene expression, IL-6 (IL-6 [2]): 15.2
production of IL-10 (IL-10 [3]): inhibits the production of IL-10
Relative Gene expression, IFNg (IFNg): 4.2
Relative Gene expression, IL-23 (IL-23): 11.0
Relative Gene expression, IL-10 (IL-10 [4]): 3.1
Relative Gene expression, IL-12 (IL-12 [5]): 3.4
Relative Gene expression, TNFa (TNFa): 13.1
Relative Gene expression, IL-17 (IL-17): 14.6

Nc1c(C(=O)c2cccc(OCC(O)CO)c2)cnn1-c1ccc(F)cc1 (centres unmarked) [Compound 49, [5-Amino-1-(4-fluoro-phenyl)-1H-pyrazol-4-yl]-[3-(2,3-dihydroxy-propoxy)-phenyl]-methanone]
Relative Gene expression, IL-6 (IL-6 [2]): 18.3
IL-4 (Con A, spleen), amount of cytokine (IL-4): 188 % of control treated with solvent alone
Relative Gene expression, IFNg (IFNg): 6.3
Relative Gene expression, IL-23 (IL-23): 2.1
IL-10 by ELISA, % of solvent treated control (IL-10 [1]; 1.25 μM inhibitor in medium): 41 % of solvent treated control
IL-10 by ELISA, % of solvent treated control (IL-10 [1]; 5 μM inhibitor in medium): 42 % of solvent treated control
IL-10 by ELISA, % of solvent treated control (IL-10 [1]; 20 μM inhibitor in medium): 13 % of solvent treated control
Relative Gene expression, IL-10 (IL-10 [4]): 8.9
production of IL-12 (IL-12 [6]): stimulates the production of IL-12
Relative Gene expression, IL-12 (IL-12 [5]): 28.8
Relative Gene expression, TNFa (TNFa): 21.4
Relative Gene expression, IL-17 (IL-17): 15.2

CC[C@H]1OC(=O)[C@H](C)[C@@H](O)[C@H](C)[C@@H](O[C@@H]2O[C@H](C)C[C@H](N(C)CC(O)CSc3nc(-c4ccc(F)cc4)c(-c4ccncc4)[nH]3)[C@H]2O)[C@](C)(O)C[C@@H](C)CN(C)[C@H](C)[C@@H](O)[C@]1(C)O (some centres unmarked) [Compound 22]
IL-6 (LPS, Macrophages), amount of cytokine (IL-6 [7]): 116 % of control treated with solvent alone
Proliferation (Con A, T cells) (T cells): 10 % of control treated with solvent alone
IL-10 (ConA, T cells), amount of cytokine (IL-10 [8]): 144 % of control treated with solvent alone
IL-4 (Con A, spleen), amount of cytokine (IL-4): 237 % of control treated with solvent alone and 407 % of control treated with solvent alone
NO (LPS, Macrophages), % of control treated with solvent alone (NO): 69 % of control treated with solvent alone
IL-10 by ELISA, % of solvent treated control (IL-10 [1]; 0.31 μM inhibitor in medium): 103 % of solvent treated control
IL-10 by ELISA, % of solvent treated control (IL-10 [1]; 1.25 μM inhibitor in medium): 86 % of solvent treated control
IL-10 by ELISA, % of solvent treated control (IL-10 [1]; 5 μM inhibitor in medium): 43 % of solvent treated control
IL-10 by ELISA, % of solvent treated control (IL-10 [1]; 10 μM inhibitor in medium): 13 % of solvent treated control
IL-10 (LPS, Macrophages), amount of cytokine (IL-10 [1]; 10 μM, LPS, macrophages, 72 h): 13 % of control treated with solvent alone
IL-10 by ELISA, % of solvent treated control (IL-10 [1]; 20 μM inhibitor in medium): −3 % of solvent treated control
IL-2 (ConA, T cells), amount of cytokine (IL-2): 29 % of control treated with solvent alone
IFN-g (ConA, T cells), amount of cytokine (IFN-g): 41 % of control treated with solvent alone
IL-1β (Macrophages, LPS), amount of cytokine (IL-1β): 90 % of control treated with solvent alone and 106 % of control treated with solvent alone

Nc1ccn([C@@H]2O[C@H](CO)[C@@H](O)C2(F)F)c(=O)n1 [Gemcitabine]
survival time relative to vehicle (pancreatic cancer): 1.5 fold

CCc1nc(-c2cccc(C)c2)c(-c2ccnc(NC(=O)c3ccccc3)c2)s1 [TAK-715]
growth rate of the LLC tumour [9]: reduction in the growth rate of the LLC tumour

CC[C@H]1OC(=O)[C@H](C)[C@@H](O[C@H]2C[C@@](C)(OC)[C@@H](O)[C@H](C)O2)[C@H](C)[C@@H](O[C@@H]2O[C@H](C)C[C@H](N(C)CCCC(=O)OCC(O)CSc3nc(-c4ccc(F)cc4)c(-c4ccncc4)[nH]3)[C@H]2O)[C@](C)(O)C[C@@H](C)CN(C)[C@H](C)[C@@H](O)[C@]1(C)O (some centres unmarked) [Compound 43g]
Proliferation (LPS, B cells) (B cells): −1 % of control treated with solvent alone
Proliferation (Con A, T cells) (T cells): 3 % of control treated with solvent alone
IL-4 (Con A, spleen), amount of cytokine (IL-4): 125 % of control treated with solvent alone
IL-10 by ELISA, % of solvent treated control (IL-10 [1]; 1.25 μM inhibitor in medium): 26 % of solvent treated control
IL-10 by ELISA, % of solvent treated control (IL-10 [1]; 5 μM inhibitor in medium): −12 % of solvent treated control
IL-10 by ELISA, % of solvent treated control (IL-10 [1]; 20 μM inhibitor in medium): −12 % of solvent treated control
IL-1β (Macrophages, LPS), amount of cytokine (IL-1β): 28 % of control treated with solvent alone
